# Active and inactive are the calls of the source. No rule for the calls is given here.
# Tested on: CCRIS mutagenicity, Ames/micronucleus/aberration tests
# Test: CCRIS mutagenicity studies
# [1] = Test System: AMES SALMONELLA TYPHIMURIUM, Strain/Indicator: TA98, Metabolic Activation: NONE, Method: PREINCUBATION
# [2] = Test System: AMES SALMONELLA TYPHIMURIUM, Strain/Indicator: TA100, Metabolic Activation: NONE, Method: PREINCUBATION
# [3] = Test System: AMES SALMONELLA TYPHIMURIUM, Strain/Indicator: TA102, Metabolic Activation: NONE, Method: PREINCUBATION
compound,measurement,setting,value
CCCCCCCCO,mutagenic call,[1],inactive; negative
same,mutagenic call,"Test System: AMES SALMONELLA TYPHIMURIUM, Strain/Indicator: TA98, Metabolic Activation: RAT, LIVER, S-9, PHENOBARBITAL AND BETA-NAPHTHOFLAVONE, Method: PREINCUBATION",inactive; negative
same,mutagenic call,[2],inactive; negative
same,mutagenic call,"Test System: AMES SALMONELLA TYPHIMURIUM, Strain/Indicator: TA100, Metabolic Activation: RAT, LIVER, S-9, PHENOBARBITAL AND BETA-NAPHTHOFLAVONE, Method: PREINCUBATION",inactive; negative
same,mutagenic call,"Test System: AMES SALMONELLA TYPHIMURIUM, Strain/Indicator: TA100, Metabolic Activation: RAT, LIVER, S-9, SODIUM PHENOBARBITAL AND 5,6-BENZOFLAVONE, Method: PREINCUBATION",inactive; negative
same,mutagenic call,[3],inactive; negative
same,mutagenic call,"Test System: AMES SALMONELLA TYPHIMURIUM, Strain/Indicator: TA102, Metabolic Activation: RAT, LIVER, S-9, PHENOBARBITAL AND BETA-NAPHTHOFLAVONE, Method: PREINCUBATION",inactive; negative
same,mutagenic call,"Test System: AMES SALMONELLA TYPHIMURIUM, Strain/Indicator: TA102, Metabolic Activation: RAT, LIVER, S-9, SODIUM PHENOBARBITAL AND 5,6-BENZOFLAVONE, Method: PREINCUBATION",inactive; negative
same,mutagenic call,"Test System: AMES SALMONELLA TYPHIMURIUM, Strain/Indicator: TA104, Metabolic Activation: NONE, Method: PREINCUBATION",inactive; negative
same,mutagenic call,"Test System: AMES SALMONELLA TYPHIMURIUM, Strain/Indicator: TA104, Metabolic Activation: RAT, LIVER, S-9, PHENOBARBITAL AND BETA-NAPHTHOFLAVONE, Method: PREINCUBATION",inactive; negative
same,mutagenic call,"Test System: AMES SALMONELLA TYPHIMURIUM, Strain/Indicator: TA104, Metabolic Activation: RAT, LIVER, S-9, SODIUM PHENOBARBITAL AND 5,6-BENZOFLAVONE, Method: PREINCUBATION",inactive; negative
same,mutagenic call,"Test System: AMES SALMONELLA TYPHIMURIUM, Strain/Indicator: TA1535, Metabolic Activation: NONE, Method: PREINCUBATION",inactive; negative
same,mutagenic call,"Test System: AMES SALMONELLA TYPHIMURIUM, Strain/Indicator: TA1535, Metabolic Activation: RAT, LIVER, S-9, PHENOBARBITAL AND BETA-NAPHTHOFLAVONE, Method: PREINCUBATION",inactive; negative
same,mutagenic call,"Test System: AMES SALMONELLA TYPHIMURIUM, Strain/Indicator: TA1537, Metabolic Activation: NONE, Method: PREINCUBATION",inactive; negative
same,mutagenic call,"Test System: AMES SALMONELLA TYPHIMURIUM, Strain/Indicator: TA1537, Metabolic Activation: RAT, LIVER, S-9, PHENOBARBITAL AND BETA-NAPHTHOFLAVONE, Method: PREINCUBATION",inactive; negative
same,mutagenic call,"Test System: E. COLI, Strain/Indicator: WP2UVRA/PKM101, Metabolic Activation: NONE, Method: PREINCUBATION",inactive; negative
same,mutagenic call,"Test System: E. COLI, Strain/Indicator: WP2UVRA/PKM101, Metabolic Activation: RAT, LIVER, S-9, PHENOBARBITAL AND BETA-NAPHTHOFLAVONE, Method: PREINCUBATION",inactive; negative
same,mutagenic call,"Test System: E. COLI, Strain/Indicator: WP2UVRA/PKM101, Metabolic Activation: RAT, LIVER, S-9, SODIUM PHENOBARBITAL AND 5,6-BENZOFLAVONE, Method: PREINCUBATION",inactive; negative
same,mutagenic call,"Test System: E. COLI, Strain/Indicator: WP2UVRA, Metabolic Activation: NONE, Method: PREINCUBATION",inactive; negative
same,mutagenic call,"Test System: E. COLI, Strain/Indicator: WP2UVRA, Metabolic Activation: RAT, LIVER, S-9, PHENOBARBITAL AND BETA-NAPHTHOFLAVONE, Method: PREINCUBATION",inactive; negative
CC(O)C(C)[N+](=O)[O-] (stereo unspecified),mutagenic call,[1],inactive; negative
same,mutagenic call,"Test System: AMES SALMONELLA TYPHIMURIUM, Strain/Indicator: TA98, Metabolic Activation: RAT, LIVER, S-9, AROCLOR, Method: PREINCUBATION",inactive; negative
same,mutagenic call,[2],inactive; negative
same,mutagenic call,[3],inactive; negative
same,mutagenic call,"Test System: AMES SALMONELLA TYPHIMURIUM, Strain/Indicator: TA102, Metabolic Activation: RAT, LIVER, S-9, AROCLOR, Method: PREINCUBATION",inactive; negative
Cc1ccc(NO)cc1,mutagenic call,"Test System: AMES SALMONELLA TYPHIMURIUM, Strain/Indicator: TA98, Metabolic Activation: RAT, LIVER, S-9, AROCLOR 1254, Method: PREINCUBATION",inactive; negative
same,mutagenic call,[2],active; positive
same,mutagenic call,"Test System: AMES SALMONELLA TYPHIMURIUM, Strain/Indicator: TA100, Metabolic Activation: RAT, LIVER, S-9, PCB, Method: PREINCUBATION",active; positive
same,mutagenic call,"Test System: E. COLI, Strain/Indicator: WP2 UVRA, Metabolic Activation: NONE, Method: FLUCTUATION TEST",active; positive
Cn1c(N)nc2nc3ccncc3cc21,mutagenic call,"Test System: AMES SALMONELLA TYPHIMURIUM, Strain/Indicator: TA98, Metabolic Activation: RAT, LIVER, S-9, AROCLOR 1254A, Method: STANDARD PLATE",inactive; negative
same,mutagenic call,"Test System: AMES SALMONELLA TYPHIMURIUM, Strain/Indicator: YG1024, Metabolic Activation: RAT, LIVER, S-9, AROCLOR 1254A, Method: STANDARD PLATE",active; positive

# Reference: PubChem BioAssay AID1259407 (Chemical Carcinogenesis Research Information System (CCRIS), 2018)
